In assay [1] the target is T1, PDE5A1 (phosphodiesterase type 5) (Homo sapiens, UniProt O76074).
T1 construct: gene PDE5A
In words: PDE5A1 assay kit (BPS Bioscience), fluorescence polarization with FAM-cyclic-3', […]'-GMP. It counts as biochemical. For orientation: Polarisation of emitted light reports the rotation of a fluorescent probe.

Another assay has as its target T2, tubulin (Sus scrofa, UniProt P02550+P02554).
T2 construct: with alpha-tubulin
In words: in vitro pure tubulin polymerization assay (Cytoskeleton kit, […] nm), […] inhibition at […]. Type of assay: biochemical. Conditions: read-out: % inhibition at 1000 nM.

T2 sequence (P02554 whole entry): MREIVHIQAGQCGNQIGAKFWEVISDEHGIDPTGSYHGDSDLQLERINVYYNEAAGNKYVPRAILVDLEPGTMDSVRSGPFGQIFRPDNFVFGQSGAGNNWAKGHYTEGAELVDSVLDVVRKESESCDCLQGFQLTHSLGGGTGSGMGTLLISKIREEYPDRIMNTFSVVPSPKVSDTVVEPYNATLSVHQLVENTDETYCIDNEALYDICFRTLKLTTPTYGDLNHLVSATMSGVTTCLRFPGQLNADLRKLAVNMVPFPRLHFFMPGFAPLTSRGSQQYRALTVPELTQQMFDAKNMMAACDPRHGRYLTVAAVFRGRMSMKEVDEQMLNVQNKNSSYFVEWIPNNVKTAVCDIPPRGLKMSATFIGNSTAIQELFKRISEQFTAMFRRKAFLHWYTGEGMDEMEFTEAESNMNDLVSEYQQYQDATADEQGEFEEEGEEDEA
T2 sequence (P02550 whole entry): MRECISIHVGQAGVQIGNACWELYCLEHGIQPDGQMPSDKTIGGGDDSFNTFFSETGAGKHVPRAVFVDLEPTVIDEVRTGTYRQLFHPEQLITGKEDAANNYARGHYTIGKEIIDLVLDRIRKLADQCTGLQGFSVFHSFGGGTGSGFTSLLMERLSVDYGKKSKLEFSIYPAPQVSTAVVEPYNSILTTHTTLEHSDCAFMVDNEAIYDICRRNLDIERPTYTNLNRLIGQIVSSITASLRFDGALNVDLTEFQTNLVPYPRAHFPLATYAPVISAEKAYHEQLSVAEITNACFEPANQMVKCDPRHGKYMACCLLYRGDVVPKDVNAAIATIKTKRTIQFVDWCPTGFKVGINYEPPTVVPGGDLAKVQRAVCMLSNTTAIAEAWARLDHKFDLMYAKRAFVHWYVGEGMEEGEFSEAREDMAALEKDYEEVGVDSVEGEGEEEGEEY

Usually IC50 stands for the concentration that inhibits the measured activity by half. Low readings indicate higher potency, high ones lower potency. In assay [1], `CCCn1nnc2c(OC)nc(-c3cc(S(=O)(=O)N4CCN(C)CC4)ccc3OC)nc21` [YL-9] gave an IC50 of 632 nM.
In general, inhibition refers to the change of the read-out against control, counted positive when it falls. On to `CCC1=C[C@@H]2CN(C1)Cc1c([nH]c3ccccc13)[C@@](C(=O)OC)(c1cc3c(cc1OC)N(C)[C@H]1[C@@](O)(C(=O)OC)[C@H](OC(C)=O)[C@]4(CC)C=CCN5CC[C@]31[C@@H]54)C2` [vinorelbine], for which the inhibition at 1 µM at tubulin came out at 16.7%.

Values taken from paper PMC7460560, “Discovery of Novel Agents on Spindle Assembly Checkpoint to Sensitize Vinorelbine-Induced Mitotic Cell Death against Human Non-Small Cell Lung Cancers” (International Journal of Molecular Sciences, 2020).
